Earlier results as cited in patent US4716040A, “Controlled absorption methyldopa pharmaceutical formulation” (Elan Corporation P.L.C., priority 1983, dated 1987).

Columns and labels:
[1] = system: decarboxylation of dopa to dopamine

C[C@](N)(Cc1ccc(O)c(O)c1)C(=O)O [methyldopa, 3-hydroxy-α-methyl-L-tyrosine]
decarboxylation of dopa to dopamine [1]: inhibits
oedema (hypertension; methyldopa therapy): sometimes observed
effect on standing and supine blood pressure (hypertension; moderate to severe hypertension): reducing the standing blood pressure and also reduces the supine blood pressure
maximum hypotensive effect may not occur until (hypertension; oral): second day of treatment
onset of effects after oral administration (hypertension; oral): about 2 hours
some effect still usually apparent after a dose (hypertension; oral): 24 h
unchanged methyldopa in urine (of the methyldopa eliminated in the urine): about 25%
fraction of oral dose absorbed (oral): about one half
metabolites in urine (remainder of the methyldopa eliminated in the urine): mainly a mono-O-sulphate of methyldopa
